# Reference: patent US11980633B2, “Method for treating cancer using a combination of DNA-damaging agents and DNA-PK inhibitors” (Vertex Pharmaceuticals Incorporated, priority 2016, dated 2024)
# How the values were obtained:
# Assay type in all cases: cell-based
# [1] = tested on: primary human tumors (NSCLC, pancreatic, gastric, esophageal); test: TCA: Compound B-1 with bleomycin, primary tumors; parameters: Average Bliss score: scale not given here
# Description: (§1) In both studies, cell viability was assessed after 6 days in culture. Statistical analysis of the combination matrix was performed to assess whether synergy, additivity, or antagonism of the combination treatments were observed.
# (§2) Materials: Primary patient samples (See Tables 16 and 17, below) were excised from mice when they reached 500 mg to 1000 mg in size and processed immediately, or after overnight shipment. Tumors were serially passaged by subcutaneous implantation of 50 mg to 150 mg fragments into the flanks of immunocompromised (nude) mice. Tumors were used within the first 5 or 7 passages.
# (§3) Tumor Chemosensitivity Assay (TCA): Primary tumor samples were grown and serially passaged in immunocompromised mice. Tumors were mechanically dissociated into small fragments (1 mm to 2 mm) with scalpels in phosphate buffered saline (PBS or RPMI) and centrifuged at 200×g for 5 minutes at room temperature in 50 mL centrifuge tubes. Samples were resuspended in 10 mL of cell dissociation reagent and enzymatically digested with mechanical agitation for 1 to 3 hours at 37° C., 5% CO2 to a single cell suspension. Ten mL of complete RPMI-1640 media was added to the cell mixture and pipetted up and down 4 to 5 times. The mixture was then passed through a 70 μm or 100 μm mesh strainer to remove undigested tumor. The filtrate was then centrifuged 200×g for 5 minutes at room temperature and resuspended in 20 mL complete RPMI-1640. This cell suspension was slowly layered onto 20 mL of room temperature Histopaque and centrifuged at 400×g for 15 minutes at room temperature without a brake. The interface was transferred to a new 50 mL centrifuge tube and 15 mL of complete RPMI-1640 was added. This suspension was centrifuged at 200×g at room temperature, and the resulting pellet was resuspended in 10 mL of complete PC-1 media, except for pancreatic tumors in which case Pancreatic Medium was used. Cells were diluted in Trypan blue, and viable cells that excluded the dye were counted. Only the larger, tumor cells were included in the cell count. Cells were diluted in complete PC-1 or Pancreatic media, as appropriate for the cells, and were plated at 15,000 to 20,000 cells per well in 100-135 μL in ultra-low attachment U-bottom plates.
# (§4) Compound Addition: For these studies, a 10 mM stock of the DNA-PK inhibitor (Compound B-1 or Compound B-2) was made in DMSO and used to add to cells from most tumors with HP D300 Digital Dispenser (Tecan US, Morrisville, NC, USA), or diluted into the appropriate media (PC-1 or pancreatic media) as a 5-10× stock and added to cells (OVX001 and ENX001, 005). PC-1, pancreatic media, and chemotherapeutics were also added so that final well volume was 150 μL. Doxorubicin was made as DMSO stock of 1 or 10 mM and added to cells for most tumors with HP D300 Digital Dispenser, or diluted into PC-1 as 5-10× stock and added to cells (OVX001 and ENX001, 005). Cisplatin (cis-diammine platinum(II), dichloride) was prepared fresh to 10 mM in warm (60° C.) distilled water and diluted in PC-1 as a 5-10× stock. […] Different starting concentrations, dose ranges, and number of doses were used for each experiment based on the response data available at the time.
# (§5) For bleomycin experiments, combinations with Compound B-1 at all concentrations were run in triplicate. A 6×3 matrix was designed on one plate, consisting of a 2-point concentration range of 0.73 μM and 2.2 μM Compound B-1 plus no treatment control, in 3 columns each of 6 wells. Bleomycin (plus ‘no treatment’ control) was added to 9 wells in rows of this plate. Similar 6×3 matrices were set up for additional agents with different starting concentrations for compound dilutions. For cisplatin experiments the starting concentration was 30 μM which was diluted 1:3. […] For doxorubicin hydrochloride experiments the starting concentration was 5 μM doxorubicin which was diluted 1:3. For gemcitabine experiments the starting concentration was 5 μM gemcitabine which was diluted 1:3. […]
# [2] = tested on: primary human pancreatic tumors; test: TCA: Compound B-1 with gemcitabine, primary pancreatic tumors
# Description: as §1, §2, §3, §4, §5
# [3] = tested on: primary human tumors (NSCLC, esophageal, gastric); test: TCA: Compound B-1 with cisplatin, primary tumors; parameters: Average Bliss score: scale not given here
# Description: as §1, §2, §3, §4, §5
smiles,measurement,setting,value
CNC(=O)c1ccnc2c([C@H](C)CNc3cc(-c4cnc(C)nc4)ncn3)cccc12 [Compound B-1],number of tumors that showed synergy or additivity,[1]; of twenty tumors assessed,20 tumors
same,tumors that showed strong synergy,[1]; six of 20 tumors,30%
same,Average Bliss score,"[1]; tumor ESX005, Esophageal",6
same,Synergy/Additivity/Antagonism,"[1]; tumor ESX005, Esophageal",Synergistic (greater than 5 are considered synergistic)
same,Average Bliss score,"[1]; tumor ESX008, Esophageal",7
same,Synergy/Additivity/Antagonism,"[1]; tumor ESX008, Esophageal",Synergistic (greater than 5 are considered synergistic)
same,Average Bliss score,"[1]; tumor GAX001, Gastric",14
same,Synergy/Additivity/Antagonism,"[1]; tumor GAX001, Gastric",Strongly Synergistic (greater than 10 are considered strongly synergistic)
same,Average Bliss score,"[1]; tumor GAX007, Gastric",5
same,Synergy/Additivity/Antagonism,"[1]; tumor GAX007, Gastric",Synergistic (greater than 5 are considered synergistic)
same,Average Bliss score,"[1]; tumor GAX027, Gastric",11
same,Synergy/Additivity/Antagonism,"[1]; tumor GAX027, Gastric",Strongly Synergistic (greater than 10 are considered strongly synergistic)
same,Average Bliss score,"[1]; tumor OD25982, Lung (NSCLC)",4
same,Synergy/Additivity/Antagonism,"[1]; tumor OD25982, Lung (NSCLC)",Additive (Values between 5 and −5 are considered additive)
same,Average Bliss score,"[1]; tumor OD26131, Lung (NSCLC)",9
same,Synergy/Additivity/Antagonism,"[1]; tumor OD26131, Lung (NSCLC)",Synergistic (greater than 5 are considered synergistic)
same,Average Bliss score,"[1]; tumor OD26749, Lung (NSCLC)",10
same,Synergy/Additivity/Antagonism,"[1]; tumor OD26749, Lung (NSCLC)",Strongly Synergistic (greater than 10 are considered strongly synergistic)
same,Average Bliss score,"[1]; tumor OD29498, Lung (NSCLC)",3
same,Synergy/Additivity/Antagonism,"[1]; tumor OD29498, Lung (NSCLC)",Additive (Values between 5 and −5 are considered additive)
same,Average Bliss score,"[1]; tumor OD33117, Lung (NSCLC)",9
same,Synergy/Additivity/Antagonism,"[1]; tumor OD33117, Lung (NSCLC)",Synergistic (greater than 5 are considered synergistic)
same,Average Bliss score,"[1]; tumor OD33966, Lung (NSCLC)",3
same,Synergy/Additivity/Antagonism,"[1]; tumor OD33966, Lung (NSCLC)",Additive (Values between 5 and −5 are considered additive)
same,Average Bliss score,"[1]; tumor OD36088, Lung (NSCLC)",14
same,Synergy/Additivity/Antagonism,"[1]; tumor OD36088, Lung (NSCLC)",Strongly Synergistic (greater than 10 are considered strongly synergistic)
same,Average Bliss score,"[1]; tumor P110323, Pancreatic",10
same,Synergy/Additivity/Antagonism,"[1]; tumor P110323, Pancreatic",Strongly Synergistic (greater than 10 are considered strongly synergistic)
same,Average Bliss score,"[1]; tumor P110325, Pancreatic",0
same,Synergy/Additivity/Antagonism,"[1]; tumor P110325, Pancreatic",Additive (Values between 5 and −5 are considered additive)
same,Average Bliss score,"[1]; tumor P110408, Pancreatic",7
same,Synergy/Additivity/Antagonism,"[1]; tumor P110408, Pancreatic",Synergistic (greater than 5 are considered synergistic)
same,Average Bliss score,"[1]; tumor P110413, Pancreatic",6
same,Synergy/Additivity/Antagonism,"[1]; tumor P110413, Pancreatic",Synergistic (greater than 5 are considered synergistic)
same,Average Bliss score,"[1]; tumor P110504, Pancreatic",8
same,Synergy/Additivity/Antagonism,"[1]; tumor P110504, Pancreatic",Synergistic (greater than 5 are considered synergistic)
same,Average Bliss score,"[1]; tumor P110603, Pancreatic",14
same,Synergy/Additivity/Antagonism,"[1]; tumor P110603, Pancreatic",Strongly Synergistic (greater than 10 are considered strongly synergistic)
same,Average Bliss score,"[1]; tumor TS110310, Lung (NSCLC)",2
same,Synergy/Additivity/Antagonism,"[1]; tumor TS110310, Lung (NSCLC)",Additive (Values between 5 and −5 are considered additive)
same,Average Bliss score,"[1]; tumor YAS111611, Lung (NSCLC)",6
same,Synergy/Additivity/Antagonism,"[1]; tumor YAS111611, Lung (NSCLC)",Synergistic (greater than 5 are considered synergistic)
same,tumors that showed additivity,[2]; 2 of 4 pancreatic tumors,50%
same,tumors that showed antagonism,[2]; 2 of 4 pancreatic tumors,50%
same,Average Bliss score,"[2]; tumor P110325, Pancreatic",−9
same,Synergy/Additivity/Antagonism,"[2]; tumor P110325, Pancreatic",Antagonistic (less than −5 are considered antagonistic)
same,Average Bliss score,"[2]; tumor P110413, Pancreatic",−1
same,Synergy/Additivity/Antagonism,"[2]; tumor P110413, Pancreatic",Additive (Values between 5 and −5 are considered additive)
same,Average Bliss score,"[2]; tumor P110504, Pancreatic",−6
same,Synergy/Additivity/Antagonism,"[2]; tumor P110504, Pancreatic",Antagonistic (less than −5 are considered antagonistic)
same,Average Bliss score,"[2]; tumor P110603, Pancreatic",−2
same,Synergy/Additivity/Antagonism,"[2]; tumor P110603, Pancreatic",Additive (Values between 5 and −5 are considered additive)
same,tumors that showed additivity or synergy,[3]; nine of 10 tumors,90%
same,tumors that demonstrated antagonism,[3]; one of 10 tumors,10%
same,Average Bliss score,"[3]; tumor ESX005, Esophageal",2
same,Synergy/Additivity/Antagonism,"[3]; tumor ESX005, Esophageal",Additive (Values between 5 and −5 are considered additive)
same,Average Bliss score,"[3]; tumor ESX008, Esophageal",1
same,Synergy/Additivity/Antagonism,"[3]; tumor ESX008, Esophageal",Additive (Values between 5 and −5 are considered additive)
same,Average Bliss score,"[3]; tumor GAX001, Gastric",14
same,Synergy/Additivity/Antagonism,"[3]; tumor GAX001, Gastric",Strongly Synergistic (greater than 10 are considered strongly synergistic)
same,Average Bliss score,"[3]; tumor GAX007, Gastric",2
same,Synergy/Additivity/Antagonism,"[3]; tumor GAX007, Gastric",Additive (Values between 5 and −5 are considered additive)
same,Average Bliss score,"[3]; tumor GAX027, Gastric",−3
same,Synergy/Additivity/Antagonism,"[3]; tumor GAX027, Gastric",Additive (Values between 5 and −5 are considered additive)
same,Average Bliss score,"[3]; tumor OD33117, Lung (NSCLC)",6
same,Synergy/Additivity/Antagonism,"[3]; tumor OD33117, Lung (NSCLC)",Synergistic (greater than 5 are considered synergistic)
same,Average Bliss score,"[3]; tumor OD33966, Lung (NSCLC)",−1
same,Synergy/Additivity/Antagonism,"[3]; tumor OD33966, Lung (NSCLC)",Additive (Values between 5 and −5 are considered additive)
same,Average Bliss score,"[3]; tumor OD36088, Lung (NSCLC)",6
same,Synergy/Additivity/Antagonism,"[3]; tumor OD36088, Lung (NSCLC)",Synergistic (greater than 5 are considered synergistic)
same,Average Bliss score,"[3]; tumor TS110310, Lung (NSCLC)",−3
same,Synergy/Additivity/Antagonism,"[3]; tumor TS110310, Lung (NSCLC)",Additive (Values between 5 and −5 are considered additive)
same,Average Bliss score,"[3]; tumor YAS111611, Lung (NSCLC)",−6
same,Synergy/Additivity/Antagonism,"[3]; tumor YAS111611, Lung (NSCLC)",Antagonistic (less than −5 are considered antagonistic)
